Experimental data reported in patent US11331369B2, “Endoparasitic depsipeptides” (Zoetis Services LLC, priority 2017, dated 2022).

Test system: microfilariae of Dirofilaria immitis
Assay: Dirofilaria immitis, Microfilaria (DiMF) In vitro Assay
Assay type: cell-based
Conditions: 72 h, read-out: DiMF Minimum Effective Dose (MED), approximately 72 hours incubation, microfilariae assessed for survival or paralysis

CC(C)C[C@H]1C(=O)O[C@H](Cc2ccc(Cn3cc(-c4nccs4)cn3)cc2)C(=O)N(C)[C@@H](CC(C)C)C(=O)O[C@H](C)C(=O)N(C)[C@@H](CC(C)C)C(=O)O[C@H](Cc2ccc(Cn3cc(-c4nccs4)cn3)cc2)C(=O)N(C)[C@@H](CC(C)C)C(=O)O[C@H](C)C(=O)N1C [Example 1b-13, (3S,6R,9S,12R,15S,18R,21S,24R)-3,9,15,21-tetraisobutyl-4,6,10,16,18,22-hexamethyl-12,24-bis(4-((4-(thiazol-2-yl)-1H-pyrazol-1-yl)methyl)benzyl)-1,7,13,19-tetraoxa-4,10,16,22-tetraazacyclotetracosan-2,5,8,11,14,17,20,23-octaone]
minimal effective concentration: 0.01 to 0.1 µM

CSc1cnn(Cc2ccc(C[C@H]3OC(=O)[C@H](CC(C)C)N(C)C(=O)[C@@H](C)OC(=O)[C@H](CC(C)C)N(C)C(=O)[C@@H](Cc4ccc(Cn5cc(SC)cn5)cc4)OC(=O)[C@H](CC(C)C)N(C)C(=O)[C@@H](C)OC(=O)[C@H](CC(C)C)N(C)C3=O)cc2)c1 [Example 1b-20, (3S,6R,9S,12R,15S,18R,21S,24R)-3,9,15,21-tetraisobutyl-4,6,10,16,18,22-hexamethyl-12,24-bis[[4-[(4-methylsulfanylpyrazol-1-yl)methyl]phenyl]methyl]-1,7,13,19-tetraoxa-4,10,16,22-tetrazacyclotetracosane-2,5,8,11,14,17,20,23-octaone]
minimal effective concentration: 0.01 to 0.1 µM

CC(C)C[C@H]1C(=O)O[C@H](Cc2ccc(Cn3cc(/C(N)=N/O)cn3)cc2)C(=O)N(C)[C@@H](CC(C)C)C(=O)O[C@H](C)C(=O)N(C)[C@@H](CC(C)C)C(=O)O[C@H](Cc2ccc(Cn3cc(C(N)=NO)cn3)cc2)C(=O)N(C)[C@@H](CC(C)C)C(=O)O[C@H](C)C(=O)N1C [Example 1b-22, N′-hydroxy-1-[[4-[[(2R,5S,8R,11S,14R,17S,20R,23S)-14-[[4-[[4-[(Z)—N′-hydroxycarbamimidoyl]pyrazol-1-yl]methyl]phenyl]methyl]-5,11,17,23-tetraisobutyl-4,8,10,16,20,22-hexamethyl-3,6,9,12,15,18,21,24-octaoxo-1,7,13,19-tetraoxa-4,10,16,22-tetrazacyclotetracos-2-yl]methyl]phenyl]methyl]pyrazole-4-carboxamidine]
minimal effective concentration: 0.01 to 0.1 µM

CCc1cnn(Cc2ccc(C[C@H]3OC(=O)[C@H](CC(C)C)N(C)C(=O)[C@@H](C)OC(=O)[C@H](CC(C)C)N(C)C(=O)[C@@H](Cc4ccc(Cn5cc(CC)cn5)cc4)OC(=O)[C@H](CC(C)C)N(C)C(=O)[C@@H](C)OC(=O)[C@H](CC(C)C)N(C)C3=O)cc2)c1 [Example 1b-31, (3S,6R,9S,12R,15S,18R,21S,24R)-6,18-bis[[4-[(4-ethylpyrazol-1-yl)methyl]phenyl]methyl]-3,9,15,21-tetraisobutyl-4, 10,12,16,22,24-hexamethyl-1,7,13,19-tetraoxa-4,10,16,22-tetrazacyclotetracosane-2,5,8,11,14,17,20,23-octaone]
minimal effective concentration: 0.01 to 0.1 µM

CC(C)C[C@H]1C(=O)O[C@H](Cc2ccc(Cn3cc(C(F)(F)F)cn3)cc2)C(=O)N(C)[C@@H](CC(C)C)C(=O)O[C@H](C)C(=O)N(C)[C@@H](CC(C)C)C(=O)O[C@H](Cc2ccc(Cn3cc(C(F)(F)F)cn3)cc2)C(=O)N(C)[C@@H](CC(C)C)C(=O)O[C@H](C)C(=O)N1C [Example 1b-34, (3S,6R,9S,12R,15S,18R,21S,24R)-3,9,15,21-tetraisobutyl-4,6,10,16,18,22-hexamethyl-12,24-bis(4-((4-(trifluoromethyl)-1H-pyrazol-1-yl)methyl)benzyl)-1,7,13,19-tetraoxa-4,10,16,22-tetraazacyclotetracosan-2,5,8,11,14,17,20,23-octaone]
minimal effective concentration: 0.01 to 0.1 µM

CC(=O)c1cnn(Cc2ccc(C[C@H]3OC(=O)[C@H](CC(C)C)N(C)C(=O)[C@@H](C)OC(=O)[C@H](CC(C)C)N(C)C(=O)[C@@H](Cc4ccc(Cn5cc(C(C)=O)cn5)cc4)OC(=O)[C@H](CC(C)C)N(C)C(=O)[C@@H](C)OC(=O)[C@H](CC(C)C)N(C)C3=O)cc2)c1 [Example 1b-38, (3S,6R,9S,12R,15S,18R,21S,24R)-6,18-bis(4-((4-acetyl-1H-pyrazol-1-yl)methyl)benzyl)-3,9,15,21-tetraisobutyl-4,10,12,16,22,24-hexamethyl-1,7,13,19-tetraoxa-4,10,16,22-tetraazacyclotetracosan-2,5,8,11,14,17,20,23-octaone]
minimal effective concentration: 0.01 to 0.1 µM

CCOC(=O)c1cnn(Cc2ccc(C[C@H]3OC(=O)[C@H](CC(C)C)N(C)C(=O)[C@@H](C)OC(=O)[C@H](CC(C)C)N(C)C(=O)[C@@H](Cc4ccc(Cn5cc(C(=O)OCC)cn5)cc4)OC(=O)[C@H](CC(C)C)N(C)C(=O)[C@@H](C)OC(=O)[C@H](CC(C)C)N(C)C3=O)cc2)c1 [Example 1b-39, diethyl 1,1′-(((((2R,5S,8R,11S,14R,17S,20R,23S)-5,11,17,23-tetraisobutyl-4,8,10,16,20,22-hexamethyl-3,6,9,12,15,18,21,24-octaoxo-1,7,13,19-tetraoxa-4,10,16,22-tetraazacyclotetracosane-2,14-diyl)bis(methylene))bis(4,1-phenylene))bis(methylene))bis(1H-pyrazole-4-carboxylate)]
minimal effective concentration: 0.01 to 0.1 µM

Cc1nn(Cc2ccc(C[C@H]3OC(=O)[C@H](CC(C)C)N(C)C(=O)[C@@H](C)OC(=O)[C@H](CC(C)C)N(C)C(=O)[C@@H](Cc4ccc(Cn5cc(Br)c(C)n5)cc4)OC(=O)[C@H](CC(C)C)N(C)C(=O)[C@@H](C)OC(=O)[C@H](CC(C)C)N(C)C3=O)cc2)cc1Br [Example 1b-43, (3S,6R,9S,12R,15S,18R,21S,24R)-6,18-bis(4-((4-bromo-3-methyl-1H-pyrazol-1-yl)methyl)benzyl)-3,9,15,21-tetraisobutyl-4,10,12,16,22,24-hexamethyl-1,7,13,19-tetraoxa-4,10,16,22-tetraazacyclotetracosan-2,5,8,11,14,17,20,23-octaone]
minimal effective concentration: 0.01 to 0.1 µM

CNC(=O)c1cnn(Cc2ccc(C[C@H]3OC(=O)[C@H](CC(C)C)N(C)C(=O)[C@@H](C)OC(=O)[C@H](CC(C)C)N(C)C(=O)[C@@H](Cc4ccc(Cn5cc(C(=O)NC)cn5)cc4)OC(=O)[C@H](CC(C)C)N(C)C(=O)[C@@H](C)OC(=O)[C@H](CC(C)C)N(C)C3=O)cc2)c1 [Example 1b-53, 1,1′-(((((2R,5S,8R,11 S,14R,17S,20R,23S)-5,11,17,23-tetraisobutyl-4,8,10,16,20,22-hexamethyl-3,6,9,12,15,18,21,24-octaoxo-1,7,13,19-tetraoxa-4,10,16,22-tetraazacyclotetracosane-2,14-diyl)bis(methylene))bis(4,1-phenylene))bis(methylene))bis(N-methyl-1H-pyrazole-4-carboxamide)]
minimal effective concentration: 0.01 to 0.1 µM

CC(C)C[C@H]1C(=O)O[C@H](Cc2ccc(Cn3cc(S(=O)(=O)N4CCCC4)cn3)cc2)C(=O)N(C)[C@@H](CC(C)C)C(=O)O[C@H](C)C(=O)N(C)[C@@H](CC(C)C)C(=O)O[C@H](Cc2ccc(Cn3cc(S(=O)(=O)N4CCCC4)cn3)cc2)C(=O)N(C)[C@@H](CC(C)C)C(=O)O[C@H](C)C(=O)N1C [Example 1b-54, (3S,6R,9S,12R,15S,18R,21S,24R)-3,9,15,21-tetraisobutyl-4,6,10,16,18,22-hexamethyl-12,24-bis(4-((4-(pyrrolidin-1-ylsulfonyl)-1H-pyrazol-1-yl)methyl)benzyl)-1,7,13,19-tetraoxa-4,10,16,22-tetraazacyclotetracosan-2,5,8,11,14,17,20,23-octaone]
minimal effective concentration: 0.01 to 0.1 µM

CC(C)C[C@H]1C(=O)O[C@H](Cc2ccc(Cn3cc(C(F)F)cn3)cc2)C(=O)N(C)[C@@H](CC(C)C)C(=O)O[C@H](C)C(=O)N(C)[C@@H](CC(C)C)C(=O)O[C@H](Cc2ccc(Cn3cc(C(F)F)cn3)cc2)C(=O)N(C)[C@@H](CC(C)C)C(=O)O[C@H](C)C(=O)N1C [Example 1b-62, (3S,6R,9S,12R,15S,18R,21S,24R)-6,18-bis(4-((4-(difluoromethyl)-1H-pyrazol-1-yl)methyl)benzyl)-3,9,15,21-tetraisobutyl-4,10,12,16,22,24-hexamethyl-1,7,13,19-tetraoxa-4,10,16,22-tetraazacyclotetracosan-2,5,8,11,14,17,20,23-octaone]
minimal effective concentration: 0.001 to 0.01 µM

CC(C)C[C@H]1C(=O)O[C@H](Cc2ccc(Cn3ccc(Br)n3)cc2)C(=O)N(C)[C@@H](CC(C)C)C(=O)O[C@H](C)C(=O)N(C)[C@@H](CC(C)C)C(=O)O[C@H](Cc2ccc(Cn3ccc(Br)n3)cc2)C(=O)N(C)[C@@H](CC(C)C)C(=O)O[C@H](C)C(=O)N1C [Example 1b-63, (3S,6R,9S,12R,15S,18R,21S,24R)-6,18-bis(4-((3-bromo-1H-pyrazol-1-yl)methyl)benzyl)-3,9,15,21-tetraisobutyl-4,10,12,16,22,24-hexamethyl-1,7,13,19-tetraoxa-4,10,16,22-tetraazacyclotetracosan-2,5,8,11,14,17,20,23-octaone]
minimal effective concentration: 0.01 to 0.1 µM

CC(C)C[C@H]1C(=O)O[C@H](Cc2ccc(Cn3ccc(I)n3)cc2)C(=O)N(C)[C@@H](CC(C)C)C(=O)O[C@H](C)C(=O)N(C)[C@@H](CC(C)C)C(=O)O[C@H](Cc2ccc(Cn3ccc(I)n3)cc2)C(=O)N(C)[C@@H](CC(C)C)C(=O)O[C@H](C)C(=O)N1C [Example 1b-64, (3S,6R,9S,12R,15S,18R,21S,24R)-6,18-bis(4-((3-iodo-1H-pyrazol-1-yl)methyl)benzyl)-3,9,15,21-tetraisobutyl-4,10,12,16,22,24-hexamethyl-1,7,13,19-tetraoxa-4,10,16,22-tetraazacyclotetracosan-2,5,8,11,14,17,20,23-octaone]
minimal effective concentration: 0.01 to 0.1 µM

CC(C)C[C@H]1C(=O)O[C@H](Cc2ccc(Cn3ccc(C4CC4)n3)cc2)C(=O)N(C)[C@@H](CC(C)C)C(=O)O[C@H](C)C(=O)N(C)[C@@H](CC(C)C)C(=O)O[C@H](Cc2ccc(Cn3ccc(C4CC4)n3)cc2)C(=O)N(C)[C@@H](CC(C)C)C(=O)O[C@H](C)C(=O)N1C [Example 1b-67, (3S,6R,9S,12R,15S,18R,21S,24R)-6,18-bis(4-((3-cyclopropyl-1H-pyrazol-1-yl)methyl)benzyl)-3,9,15,21-tetraisobutyl-4,10,12,16,22,24-hexamethyl-1,7,13,19-tetraoxa-4,10,16,22-tetraazacyclotetracosan-2,5,8,11,14,17,20,23-octaone]
minimal effective concentration: 0.01 to 0.1 µM
